As usually defined, the EC50 is the concentration needed to bring the measured effect to its halfway point. The CC50 is the concentration giving 50% cytotoxicity.

Calls of active or inactive are those of the source. The calls are words filed in the database; no cut-off is given here.

Data set [1] in a line: Selectivity index, ratio of CC50 for bovine MDBK cells to EC50 for Bovine viral diarrhea virus 1-NADL. The class given is toxicity. Conditions: cattle, read-out: Ratio CC50/EC50.
Data set [2] can be described thus: Antiviral activity against Bovine viral diarrhea virus 1-NADL infected in bovine MDBK cells assessed as reduction in plaque forming units after 72 hrs by crystal violet staining-based assay. The class given is functional, cell-based. The settings on record: Bovine viral diarrhea virus isolates and strains.
In data set [3] the test system is Bovine viral diarrhea virus 1. The data set is described as follows: Ratio of EC50 for TSC-resistant Bovine viral diarrhea virus type 1 harboring NS5B N264D/A392E double mutant to EC50 for wild type Bovine viral diarrhea virus type 1 ATCC VR 534. The class given is functional.
For data set [4], the system named is Bovine viral diarrhea virus 1. The data set is described as follows: Antiviral activity against wild type Bovine viral diarrhea virus 1 ATCC VR 534 infected in bovine MDBK cells assessed as reduction in virus induced cytopathic effect after 72 hrs by MTS/PES assay. The class given is functional, cell-based. The settings on record: Bovine viral diarrhea virus isolates and strains, ATCC VR 534, MDBK. For orientation: Protection from cytopathic effect is a common read-out in antiviral testing.

Data set [5] in a line: Cytotoxicity against bovine MDBK cells assessed as reduction in cell viability after 3 days by MTS/PES assay. The class given is cell-based, Bos taurus. The settings on record: cattle.
Data set [6] has as its system Bovine viral diarrhea virus 1. The data set is described as follows: Antiviral activity against TSC-resistant Bovine viral diarrhea virus 1 harboring NS5B N264D/A392E double mutant infected in bovine MDBK cells assessed as reduction in virus induced cytopathic effect after 72 hrs by MTS/PES assay. Conditions: Bovine viral diarrhea virus isolates and strains. The class given is functional, cell-based.

Data set [7] deals with Bovine viral diarrhea virus 1. The data set is described as follows: Antiviral activity against Bovine viral diarrhea virus 1 ATCC VR 534 infected in bovine MDBK cells assessed as reduction in virus induced cytopathic effect at 25 uM treated up to 4 hrs post infection measured after 48 hrs by MTS/PES assay. The class given is functional, cell-based.

Turning to `COc1cc2c(cc1OC)/C(=N/NC(=S)Nc1ccc([N+](=O)[O-])cc1)CC2`, the selectivity ratio in data set [1] was over 14.3. The EC50 in data set [2] was 0.7 µM; in data set [4], 0.45 µM; in data set [6] it was over 10 µM. Also, in data set [3], the “Ratio EC50” value is on record as over 22. Besides, in data set [5], the 50% cytotoxic concentration (CC50) at 72 h is over 10 µM.
As for `COc1cc2c(cc1OC)/C(=N/NC(=S)Nc1ccc(F)cc1)CC2`, the selectivity ratio in data set [1] was over 5. Besides, the concentration giving a half-maximal response (EC50) in data set [2] was found to be 4 µM. Moreover, in data set [5], the CC50 at 72 h was over 20 µM.
On to `COc1ccc(NC(=S)N/N=C2\CCc3cc(OC)c(OC)cc32)cc1`, for which the selectivity ratio in data set [1] is over 1.6. For the same compound, the EC50 in data set [2] was found to be 12.9 µM. Also, in data set [5], the CC50 at 72 h is over 20 µM.
Take `S=C(N/N=C1\CCc2ccccc21)Nc1ccc(Cl)cc1`: in data set [2], the EC50 is over 20 µM. In data set [5], the CC50 at 72 h is over 20 µM.
For `NC(=S)N/N=C1\CCc2cc(F)ccc21`, the selectivity ratio in data set [1] was 5.4. Further, the EC50 in data set [2] worked out at 9 µM. For the same compound, the CC50 at 72 h in data set [5] was 41.9 µM.
As for `Cc1ccc(NC(=S)N/N=C2\CCc3ccccc32)cc1`, the EC50 in data set [2] was over 20 µM. The CC50 at 72 h in data set [5] is over 20 µM.
Consider `COc1cc2c(cc1OC)/C(=N/NC(=S)Nc1ccc(C)cc1)CC2`, for which the selectivity ratio in data set [1] was over 2.3. Also, in data set [2], the EC50 was found to be 8.8 µM. In addition, in data set [5], the CC50 at 72 h is over 20 µM.
Turning to `NC(=S)N/N=C1\CCc2ccc([N+](=O)[O-])cc21`, in data set [7], the inhibition result was “Active”. Also, the selectivity ratio in data set [1] is over 9.3. For the same compound, the values for the EC50 in data set [2], in data set [4] and in data set [6] were 2.7 µM, 1.04 µM and 1.07 µM, respectively. Besides, the CC50 at 72 h in data set [5] is over 25 µM.
As to `NC(=S)N/N=C1\CCc2c1cccc2[N+](=O)[O-]`, in data set [1], the selectivity ratio worked out at 14.2. In data set [2], the half-maximal effective concentration (EC50) was 6.1 µM. Moreover, the CC50 at 72 h in data set [5] is 84.6 µM.
Regarding `Cc1cc(Br)c(C)c2c1/C(=N/NC(N)=S)CC2`, in data set [1], the selectivity ratio was over 13.5. For the same compound, in data set [2], the EC50 worked out at 7.4 µM. In addition, the half-maximal cytotoxic concentration (CC50) at 72 h in data set [5] is over 100 µM.
On to `NC(=O)c1ncn([C@@H]2O[C@H](CO)[C@@H](O)[C@H]2O)n1` [RIBAVIRIN], for which the selectivity ratio in data set [1] was 7.1. Also, the EC50 in data set [2] is 7.7 µM.
On to `Fc1ccc(NC(=S)N/N=C2\CCc3ccccc32)cc1`, for which the EC50 in data set [2] is over 20 µM. Also, the CC50 at 72 h in data set [5] was over 20 µM.
For `S=C(N/N=C1\CCc2ccccc21)Nc1ccccc1`, the EC50 in data set [2] is over 10 µM. Further, in data set [5], the CC50 at 72 h was over 10 µM.
For the compound `COc1cc2c(cc1OC)/C(=N/NC(N)=S)CC2`, the selectivity ratio in data set [1] is over 21.1. Also, the values for the EC50 in data set [2], in data set [4] and in data set [6] were 3.8 µM, 1.95 µM and over 80 µM, respectively. For the same compound, the “Ratio EC50” value in data set [3] is given as over 41. Besides, the CC50 at 72 h in data set [5] is over 80 µM.
`COc1ccc(NC(=S)N/N=C2\CCc3ccccc32)cc1`: in data set [2], the EC50 is over 10 µM. Further, the CC50 at 72 h in data set [5] is over 10 µM.
`O=[N+]([O-])c1ccc(NC(=S)N/N=C2\CCc3ccccc32)cc1`: the concentration giving a half-maximal response (EC50) in data set [2] was over 10 µM. Also, the CC50 at 72 h in data set [5] is over 10 µM.
For `COc1cc2c(cc1OC)/C(=N/NC(=S)Nc1ccc(Cl)cc1)CC2`, the selectivity ratio in data set [1] was over 1.5. In addition, in data set [2], the EC50 was determined as 6.6 µM. Further, the cytotoxic concentration (CC50) at 72 h in data set [5] is over 10 µM.
With `COc1cc2c(cc1OC)/C(=N/NC(=S)Nc1ccccc1)CC2`, the selectivity ratio in data set [1] is over 1.2. The EC50 in data set [2] was determined as 8.4 µM. The CC50 at 72 h in data set [5] is over 10 µM.
